The values below come from ChEMBL document CHEMBL1909046, “DrugMatrix in vitro pharmacology data”.

The term IC50 denotes the concentration that gives 50% inhibition.

One test addresses T1, B2 bradykinin receptor (Homo sapiens, UniProt P30411).
T1 sequence (P30411 whole entry): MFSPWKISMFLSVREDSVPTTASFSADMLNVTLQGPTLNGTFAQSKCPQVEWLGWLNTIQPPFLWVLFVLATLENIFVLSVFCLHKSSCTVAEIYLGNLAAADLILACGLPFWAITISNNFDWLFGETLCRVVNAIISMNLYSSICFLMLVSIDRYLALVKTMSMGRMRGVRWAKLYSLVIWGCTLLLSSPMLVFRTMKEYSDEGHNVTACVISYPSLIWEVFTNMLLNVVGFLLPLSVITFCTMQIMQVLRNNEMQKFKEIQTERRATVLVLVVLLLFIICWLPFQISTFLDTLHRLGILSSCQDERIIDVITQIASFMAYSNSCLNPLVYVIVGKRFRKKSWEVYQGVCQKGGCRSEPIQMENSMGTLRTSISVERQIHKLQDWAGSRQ
The class given is cell membranes, Membrane. Particulars: chem-1.

In the next test the target is Insulin receptor (Rattus norvegicus, UniProt P15127). It is filed as cell membranes, Wistar, Liver, Membrane. Note: in other assays of this panel Not Active means under 50% inhibition at 10 µM.
Sequence of Insulin receptor (P15127 27-759 limits assumed): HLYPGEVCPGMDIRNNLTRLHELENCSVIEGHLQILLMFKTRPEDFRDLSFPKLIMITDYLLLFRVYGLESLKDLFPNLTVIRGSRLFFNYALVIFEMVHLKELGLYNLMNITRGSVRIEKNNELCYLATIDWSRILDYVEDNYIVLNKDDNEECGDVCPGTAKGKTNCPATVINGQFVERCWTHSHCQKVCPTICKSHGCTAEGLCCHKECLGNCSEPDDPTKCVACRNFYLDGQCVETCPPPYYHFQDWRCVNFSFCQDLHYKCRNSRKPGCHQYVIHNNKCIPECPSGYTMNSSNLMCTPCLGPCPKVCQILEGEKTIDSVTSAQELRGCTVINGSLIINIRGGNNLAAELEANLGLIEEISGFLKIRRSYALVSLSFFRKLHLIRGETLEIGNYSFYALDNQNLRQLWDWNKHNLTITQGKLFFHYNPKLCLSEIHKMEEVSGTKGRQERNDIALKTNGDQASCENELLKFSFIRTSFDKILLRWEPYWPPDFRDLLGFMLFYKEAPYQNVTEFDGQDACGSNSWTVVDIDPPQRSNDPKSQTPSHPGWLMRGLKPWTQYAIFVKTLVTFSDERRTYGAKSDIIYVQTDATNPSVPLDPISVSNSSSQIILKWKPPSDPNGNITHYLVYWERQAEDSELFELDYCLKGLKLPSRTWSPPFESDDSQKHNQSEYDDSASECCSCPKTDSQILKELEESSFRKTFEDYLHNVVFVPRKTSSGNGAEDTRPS
Sequence of Insulin receptor (P15127 764-1383 limits assumed): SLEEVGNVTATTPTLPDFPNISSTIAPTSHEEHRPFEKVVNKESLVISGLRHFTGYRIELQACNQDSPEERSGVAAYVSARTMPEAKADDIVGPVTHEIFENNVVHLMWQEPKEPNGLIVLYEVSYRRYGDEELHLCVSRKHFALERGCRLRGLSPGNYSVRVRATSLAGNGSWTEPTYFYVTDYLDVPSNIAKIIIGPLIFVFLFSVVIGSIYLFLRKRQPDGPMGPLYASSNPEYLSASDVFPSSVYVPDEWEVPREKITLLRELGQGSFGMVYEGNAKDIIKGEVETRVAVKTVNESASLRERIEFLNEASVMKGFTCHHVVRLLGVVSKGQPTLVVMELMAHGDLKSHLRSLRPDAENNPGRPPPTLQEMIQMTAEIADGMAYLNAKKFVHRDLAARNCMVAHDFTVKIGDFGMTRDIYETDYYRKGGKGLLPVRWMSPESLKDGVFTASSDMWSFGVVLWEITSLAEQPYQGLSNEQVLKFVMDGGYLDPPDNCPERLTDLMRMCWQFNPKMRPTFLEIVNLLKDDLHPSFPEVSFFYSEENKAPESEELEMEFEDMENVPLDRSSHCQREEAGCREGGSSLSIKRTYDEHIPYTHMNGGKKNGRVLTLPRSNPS
In test [1] the target is T2, Neuropeptide Y receptor type 1 (Homo sapiens, UniProt P25929). Note: in other assays of this panel Not Active means under 50% inhibition at 10 µM.
T2 sequence (P25929 whole entry): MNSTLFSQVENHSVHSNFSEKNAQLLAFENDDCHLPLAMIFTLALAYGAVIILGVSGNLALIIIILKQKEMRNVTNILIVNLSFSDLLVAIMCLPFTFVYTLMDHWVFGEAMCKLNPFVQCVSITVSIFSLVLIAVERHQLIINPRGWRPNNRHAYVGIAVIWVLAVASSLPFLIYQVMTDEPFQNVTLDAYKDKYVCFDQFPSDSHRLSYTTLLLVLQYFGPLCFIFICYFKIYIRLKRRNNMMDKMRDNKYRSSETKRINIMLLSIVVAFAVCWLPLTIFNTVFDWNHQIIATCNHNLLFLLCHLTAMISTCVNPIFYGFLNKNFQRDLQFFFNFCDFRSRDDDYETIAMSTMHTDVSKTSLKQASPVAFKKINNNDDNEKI
It is filed as cell membranes, Membrane. Particulars: sk-n-mc.

Test [2] concerns the target T3, Nitric oxide synthase, inducible (Mus musculus, UniProt P29477).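 Note: inhibition of iNOS enzyme activity measured with L-arginine as substrate; in other assays of this panel Not Active means under 50% inhibition at 10 µM.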
T3 sequence (P29477 whole entry): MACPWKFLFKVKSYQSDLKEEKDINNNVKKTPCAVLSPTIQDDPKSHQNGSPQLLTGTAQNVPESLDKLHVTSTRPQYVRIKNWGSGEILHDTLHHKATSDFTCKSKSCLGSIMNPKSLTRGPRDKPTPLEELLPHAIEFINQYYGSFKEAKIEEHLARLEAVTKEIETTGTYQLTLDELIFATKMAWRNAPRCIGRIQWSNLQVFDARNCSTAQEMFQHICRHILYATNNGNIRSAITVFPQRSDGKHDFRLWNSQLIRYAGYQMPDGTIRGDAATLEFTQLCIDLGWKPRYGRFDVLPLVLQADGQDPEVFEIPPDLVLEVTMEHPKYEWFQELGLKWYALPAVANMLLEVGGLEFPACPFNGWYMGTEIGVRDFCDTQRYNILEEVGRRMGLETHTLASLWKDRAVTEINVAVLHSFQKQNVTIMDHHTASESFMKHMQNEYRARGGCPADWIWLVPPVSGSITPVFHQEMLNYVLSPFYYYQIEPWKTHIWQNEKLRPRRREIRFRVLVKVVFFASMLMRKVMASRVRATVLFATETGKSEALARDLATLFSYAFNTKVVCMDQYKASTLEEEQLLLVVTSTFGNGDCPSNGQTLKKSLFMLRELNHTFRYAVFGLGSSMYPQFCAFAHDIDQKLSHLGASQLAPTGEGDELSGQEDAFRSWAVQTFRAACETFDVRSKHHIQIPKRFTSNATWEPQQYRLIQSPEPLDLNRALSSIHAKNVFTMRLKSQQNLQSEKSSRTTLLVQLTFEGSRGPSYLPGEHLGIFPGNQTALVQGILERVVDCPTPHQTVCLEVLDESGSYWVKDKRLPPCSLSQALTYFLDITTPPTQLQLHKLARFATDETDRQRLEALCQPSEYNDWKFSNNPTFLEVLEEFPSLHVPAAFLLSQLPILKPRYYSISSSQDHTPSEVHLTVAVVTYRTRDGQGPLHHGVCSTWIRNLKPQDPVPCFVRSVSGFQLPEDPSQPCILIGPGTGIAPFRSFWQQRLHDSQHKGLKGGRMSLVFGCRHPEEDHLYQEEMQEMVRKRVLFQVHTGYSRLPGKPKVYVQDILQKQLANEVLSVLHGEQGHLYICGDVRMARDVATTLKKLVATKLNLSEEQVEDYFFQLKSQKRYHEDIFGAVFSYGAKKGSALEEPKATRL
Details: species or system Escherichia coli.

Test [3] deals with Mitogen-activated protein kinase 1 (Homo sapiens, UniProt P28482). Kind of test: DRUGMATRIX: Protein Serine/Threonine Kinase, ERK2 enzyme inhibition (substrate: Myelin Basic Protein). Further details: species or system Escherichia coli. The conditions noted are these: Not Active = under 50% inhibition at 10 µM.
Sequence of Mitogen-activated protein kinase 1 (P28482 whole entry): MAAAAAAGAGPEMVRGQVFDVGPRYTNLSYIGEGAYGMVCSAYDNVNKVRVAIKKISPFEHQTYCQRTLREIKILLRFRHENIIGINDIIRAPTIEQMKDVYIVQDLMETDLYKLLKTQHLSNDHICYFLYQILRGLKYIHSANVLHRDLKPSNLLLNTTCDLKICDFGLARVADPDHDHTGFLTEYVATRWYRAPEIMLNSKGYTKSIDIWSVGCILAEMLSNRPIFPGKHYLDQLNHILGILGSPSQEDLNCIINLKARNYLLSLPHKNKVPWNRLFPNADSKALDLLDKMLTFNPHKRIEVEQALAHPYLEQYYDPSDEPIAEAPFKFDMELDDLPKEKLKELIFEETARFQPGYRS
The target of test [4] is Protein phosphatase 3 catalytic subunit alpha (Homo sapiens, UniProt Q08209). Details: species or system Escherichia coli.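 Note: inhibition of calcineurin (PP2B) enzyme activity, measured with DiFMUP as the substrate; in other assays of this panel Not Active means under 50% inhibition at 10 µM.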
In test [5] the target is Tyrosine-protein kinase Lck (Homo sapiens, UniProt P06239). Kind of test: DRUGMATRIX: Protein Tyrosine Kinase, LCK enzyme inhibition (substrate: Poly(Glu:Tyr)). The class given is cell-based, Insect cells. Particulars: Not Active = under 50% inhibition at 10 µM.
Sequence of Tyrosine-protein kinase Lck (P06239 whole entry): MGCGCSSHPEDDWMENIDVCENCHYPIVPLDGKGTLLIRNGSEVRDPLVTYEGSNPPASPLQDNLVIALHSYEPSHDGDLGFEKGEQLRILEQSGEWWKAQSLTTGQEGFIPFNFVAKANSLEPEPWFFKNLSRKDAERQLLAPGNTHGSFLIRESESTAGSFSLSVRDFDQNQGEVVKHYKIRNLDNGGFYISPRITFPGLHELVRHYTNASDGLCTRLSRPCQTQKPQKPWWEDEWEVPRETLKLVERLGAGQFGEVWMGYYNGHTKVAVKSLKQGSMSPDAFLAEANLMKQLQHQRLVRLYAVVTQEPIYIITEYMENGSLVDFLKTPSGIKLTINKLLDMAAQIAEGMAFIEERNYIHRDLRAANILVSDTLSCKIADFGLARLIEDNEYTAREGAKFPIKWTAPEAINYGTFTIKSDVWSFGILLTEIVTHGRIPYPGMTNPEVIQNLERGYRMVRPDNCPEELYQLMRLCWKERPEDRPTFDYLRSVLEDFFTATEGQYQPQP
The target of a further test is Estrogen receptor beta (Homo sapiens, UniProt Q92731). The conditions noted are these: sf9. Note: in other assays of this panel Not Active means under 50% inhibition at 10 µM.
Sequence of Estrogen receptor beta (Q92731 whole entry): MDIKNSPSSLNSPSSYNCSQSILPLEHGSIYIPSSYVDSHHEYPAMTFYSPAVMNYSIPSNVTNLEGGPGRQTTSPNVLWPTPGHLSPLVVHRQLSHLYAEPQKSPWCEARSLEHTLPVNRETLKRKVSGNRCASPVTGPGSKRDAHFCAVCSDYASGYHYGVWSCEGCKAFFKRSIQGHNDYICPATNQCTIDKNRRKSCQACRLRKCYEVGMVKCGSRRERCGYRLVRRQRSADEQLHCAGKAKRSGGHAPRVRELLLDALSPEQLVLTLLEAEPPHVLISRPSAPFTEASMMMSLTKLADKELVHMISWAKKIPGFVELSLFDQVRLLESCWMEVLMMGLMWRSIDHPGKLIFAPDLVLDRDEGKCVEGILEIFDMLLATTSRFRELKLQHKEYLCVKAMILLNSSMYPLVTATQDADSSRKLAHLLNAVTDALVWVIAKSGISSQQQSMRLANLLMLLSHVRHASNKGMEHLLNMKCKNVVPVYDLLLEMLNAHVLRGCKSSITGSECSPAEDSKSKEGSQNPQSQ

For the compound `Cc1c(C)c2c(c(C)c1O)CCC(C)(COc1ccc(CC3SC(=O)NC3=O)cc1)O2` (centres undefined) [TROGLITAZONE], the IC50 entry against B2 bradykinin receptor is “Not Active”; on Insulin receptor, “Not Active”; in test [1], “Not Active”; in test [2] it was “Not Active”; in test [3] (read-out: IC50) it was 1.24 µM; in test [4] it was “Not Active”. For the same compound, the IC50 result (in test [5] (insect cells); on Estrogen receptor beta) was “Not Active” in each case.

In the case of `c1ccc([C@H]2CN3CCSC3=N2)cc1` [LEVAMISOLE], the IC50 result (against B2 bradykinin receptor; against Insulin receptor; in test [1]; in test [2]; in test [3]; in test [4]) was “Not Active” in each case. For the same compound, the IC50 result (in test [5] (insect cells); against Estrogen receptor beta) was “Not Active” each time.

Turning to `CC[C@]1(O)C[C@H]2CN(CCc3c([nH]c4ccccc34)[C@@](C(=O)OC)(c3cc4c(cc3OC)N(C=O)[C@H]3[C@@](O)(C(=O)OC)[C@H](OC(C)=O)[C@]5(CC)C=CCN6CC[C@]43[C@@H]65)C2)C1` [VINCRISTINE], the IC50 entry (against B2 bradykinin receptor; on Insulin receptor; in test [1]; in test [2]; in test [3]; in test [4]) was “Not Active” throughout. Further, in test [5] (insect cells), the IC50 entry was “Not Active”.

`O=c1ncn2nc(Sc3ccc(F)cc3F)ccc2c1-c1c(Cl)cccc1Cl` [NEFLAMAPIMOD]: the IC50 entry (against B2 bradykinin receptor; on Insulin receptor; in test [1]; in test [2]; in test [3]; in test [4]) was “Not Active” throughout. For the same compound, the concentration for half-maximal inhibition (IC50) result (in test [5] (insect cells); on Estrogen receptor beta) was “Not Active” throughout.

For the compound `NS(=O)(=O)c1cc2c(cc1Cl)NC(C(Cl)Cl)NS2(=O)=O` (centres undefined) [TRICHLORMETHIAZIDE], the IC50 entry (against B2 bradykinin receptor; at Insulin receptor; in test [1]; in test [2]; in test [3]; in test [4]) was “Not Active” in each case. In addition, the IC50 result (in test [5] (insect cells); against Estrogen receptor beta) was “Not Active” throughout.

In the case of `CCCOc1ccccc1-c1nc2nn[nH]c2c(=O)[nH]1` [ZAPRINAST], the 50% inhibitory concentration (IC50) entry (on B2 bradykinin receptor; on Insulin receptor; in test [1]; in test [2]; in test [3]; in test [4]) was “Not Active” each time. The IC50 entry (in test [5] (insect cells); against Estrogen receptor beta) was “Not Active” in each case.

For `N#CC(C#N)=Cc1ccc(O)c(O)c1` [TYRPHOSTIN 23], the IC50 result (on B2 bradykinin receptor; at Insulin receptor; in test [1]; in test [2]; in test [3]; in test [4]) was “Not Active” in each case. Also, the IC50 entry (in test [5] (insect cells); at Estrogen receptor beta) was “Not Active” each time.

As to `C=CCC1(C(C)CCC)C(=O)NC(=O)NC1=O` (centres undefined) [SECOBARBITAL], the IC50 result (at B2 bradykinin receptor; at Insulin receptor; in test [1]; in test [2]; in test [3]; in test [4]) was “Not Active” throughout. The IC50 result (in test [5] (insect cells); against Estrogen receptor beta) was “Not Active” throughout.

In the case of `OCCN(CCO)c1nc(N2CCCCC2)c2nc(N(CCO)CCO)nc(N3CCCCC3)c2n1` [DIPYRIDAMOLE], the IC50 result (against B2 bradykinin receptor; against Insulin receptor; in test [1]; in test [2]; in test [3]; in test [4]) was “Not Active” in each case. Moreover, the IC50 entry (in test [5] (insect cells); on Estrogen receptor beta) was “Not Active” each time.

On to `Nc1c2c(nc3ccccc13)CCCC2` [TACRINE], for which the IC50 result (against B2 bradykinin receptor; at Insulin receptor; in test [1]; in test [2]; in test [3]; in test [4]) was “Not Active” in each case. Further, the IC50 result (in test [5] (insect cells); against Estrogen receptor beta) was “Not Active” each time.

Regarding `Cn1ccnc1S` [METHIMAZOLE], the IC50 result (on B2 bradykinin receptor; at Insulin receptor; in test [1]; in test [2]; in test [3]; in test [4]) was “Not Active” each time. Further, the IC50 entry (in test [5] (insect cells); against Estrogen receptor beta) was “Not Active” throughout.

Regarding `N[C@@H]1[C@H]2CN(c3nc4c(cc3F)c(=O)c(C(=O)O)cn4-c3ccc(F)cc3F)C[C@@H]12` [TROVAFLOXACIN], the IC50 result (against B2 bradykinin receptor; against Insulin receptor; in test [1]; in test [2]; in test [3]; in test [4]) was “Not Active” in each case. The IC50 entry against Estrogen receptor beta is recorded as “Not Active”.

In the case of `CC1(C)O[C@@H]2C[C@H]3[C@@H]4CCC5=CC(=O)C=C[C@]5(C)[C@@]4(F)[C@@H](O)C[C@]3(C)[C@]2(C(=O)CO)O1` [TRIAMCINOLONE ACETONIDE], the IC50 result (against B2 bradykinin receptor; against Insulin receptor; in test [1]; in test [2]; in test [3]; in test [4]) was “Not Active” in each case. Further, the IC50 result (in test [5] (insect cells); against Estrogen receptor beta) was “Not Active” in each case.

Turning to `CC/C(=C(\c1ccccc1)c1ccc(OCCN(C)C)cc1)c1ccccc1` [TAMOXIFEN], the IC50 result is “Not Active” at Insulin receptor; “Not Active” in test [1]; “Not Active” in test [2]; “Not Active” in test [3]; 30.6 µM in test [4] (read-out: IC50); 8.03 µM in test [5] (read-out: IC50).

For the compound `Cc1nc2n(c(=O)c1CCN1CCC(c3noc4cc(F)ccc34)CC1)CCCC2` [RISPERIDONE], the IC50 result (against B2 bradykinin receptor; at Insulin receptor; in test [1]; in test [2]; in test [3]; in test [4]) was “Not Active” each time. In test [5] (insect cells), the IC50 result was “Not Active”.

Take `CCCCc1oc2ccccc2c1C(=O)c1cc(I)c(OCCN(CC)CC)c(I)c1` [AMIODARONE]: the IC50 result (on Insulin receptor; in test [1]; in test [2]; in test [3]; in test [4]; in test [5] (insect cells)) was “Not Active” in each case. Besides, the IC50 entry at Estrogen receptor beta is given as “Not Active”.

For `N[C@@H](Cc1cc(I)c(Oc2ccc(O)c(I)c2)c(I)c1)C(=O)O` [LIOTHYRONINE], the IC50 entry (at B2 bradykinin receptor; against Insulin receptor; in test [1]; in test [2]; in test [3]; in test [4]) was “Not Active” each time. Moreover, in test [5] (insect cells), the IC50 result was “Not Active”.
